How the values were obtained:
Type in all cases: in vivo
[1] = tested on: field corn (Zea mays L., var. Dekalb 535, CORN); assay: Post-emerge test, crop damage field corn; details: post-emerge, 250 g ai/ha, 14 days after application, rating scale 0-100 (0 no damage, 100 complete death)
Summary of the method: (§1)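 Post-emergence spray, 8-1000 g ai/ha in acetone at 187 l/ha with 0.25% v/v non-ionic surfactant, applied to 2-3 leaf plants. Pots of sandy loam mix, greenhouse. Visual 0-100 injury rating at 14 DAT.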

[2] = tested on: large crabgrass (Digitaria sanguinalis, DIS); assay: Pre-emerge test, large crabgrass; details: 250 g ai/ha, 14 days after application, rating scale 0-100 (0 no damage, 100 complete death)
Summary of the method: (§2)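 Using a track sprayer with flat fan nozzle, acetone solutions were applied at 8–1000 g ai/ha to sandy loam pots sown one day before. Plant injury was rated visually 0–100 after 14 days.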

[3] = tested on: velvetleaf (Abutilon theophrasti, ABT); assay: Post-emerge test, velvetleaf; details: 250 g ai/ha, 14 days after application, rating scale 0-100 (0 no damage, 100 complete death)
Summary of the method: as §1

[4] = tested on: green foxtail (Setaria viridis, SEV); assay: Pre-emerge test, green foxtail; details: 250 g ai/ha, 14 days after application, rating scale 0-100 (0 no damage, 100 complete death)
Summary of the method: as §2

[5] = tested on: velvetleaf (Abutilon theophrasti, ABT); assay: Pre-emerge test, velvetleaf; details: 250 g ai/ha, 14 days after application, rating scale 0-100 (0 no damage, 100 complete death)
Summary of the method: as §2

[6] = tested on: cocklebur (Xanthium strumariunt, XAS); assay: Pre-emerge test, cocklebur; details: 250 g ai/ha, 14 days after application, rating scale 0-100 (0 no damage, 100 complete death)
Summary of the method: as §2

[7] = tested on: green foxtail (Setaria viridis, SEV); assay: Post-emerge test, green foxtail; details: 250 g ai/ha, 14 days after application, rating scale 0-100 (0 no damage, 100 complete death)
Summary of the method: as §1

[8] = tested on: common ragweed (Ambrosia artemisiifolia L., AML); assay: Pre-emerge test, common ragweed; details: 250 g ai/ha, 14 days after application, rating scale 0-100 (0 no damage, 100 complete death)
Summary of the method: as §2

[9] = tested on: common ragweed (Ambrosia artemisiifolia L., AML); assay: Post-emerge test, common ragweed; details: 250 g ai/ha, 14 days after application, rating scale 0-100 (0 no damage, 100 complete death)
Summary of the method: as §1

[10] = tested on: upland rice (Oryza sp., var.Tebonnet, RICE); assay: Pre-emerge test, crop damage upland rice; details: pre-emerge, 250 g ai/ha, 14 days after application, rating scale 0-100 (0 no damage, 100 complete death)
Summary of the method: (§3)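 Seeds planted 1 day pre-application in sandy loam soil mix; acetone solutions sprayed at 8 to 1000 g ai/ha (187 l/ha, flat fan nozzle, track sprayer). 14 d later, visual damage scored on a 0–100 scale.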

[11] = tested on: ivyleaf morningglory (Ipomoea hederacea, IPH); assay: Post-emerge test, ivyleaf morningglory; details: 250 g ai/ha, 14 days after application, rating scale 0-100 (0 no damage, 100 complete death)
Summary of the method: as §1

[12] = tested on: sicklepod (Cassia obtusifolia, CAO); assay: Post-emerge test, sicklepod; details: 250 g ai/ha, 14 days after application, rating scale 0-100 (0 no damage, 100 complete death)
Summary of the method: as §1

[13] = tested on: upland rice (Oryza sp., var.Tebonnet, RICE); assay: Post-emerge test, crop damage upland rice; details: post-emerge, 250 g ai/ha, 14 days after application, rating scale 0-100 (0 no damage, 100 complete death)
Summary of the method: as §1

[14] = tested on: redroot pigweed (Amaranthus retroflexus, AMR); assay: Pre-emerge test, redroot pigweed; details: 250 g ai/ha, 14 days after application, rating scale 0-100 (0 no damage, 100 complete death)
Summary of the method: as §2

[15] = tested on: redroot pigweed (Amaranthus retroflexus, AMR); assay: Post-emerge test, redroot pigweed; details: 250 g ai/ha, 14 days after application, rating scale 0-100 (0 no damage, 100 complete death)
Summary of the method: as §1

[16] = tested on: wheat (Triticum aestivum); assay: Post-emerge test, crop damage wheat; details: post-emerge, 250 g ai/ha, 14 days after application, rating scale 0-100 (0 no damage, 100 complete death)
Summary of the method: as §1

[17] = tested on: large crabgrass (Digitaria sanguinalis, DIS); assay: Post-emerge test, large crabgrass; details: 250 g ai/ha, 14 days after application, rating scale 0-100 (0 no damage, 100 complete death)
Summary of the method: as §1

[18] = tested on: ivyleaf morningglory (Ipomoea hederacea, IPH); assay: Pre-emerge test, ivyleaf morningglory; details: 250 g ai/ha, 14 days after application, rating scale 0-100 (0 no damage, 100 complete death)
Summary of the method: as §2

[19] = tested on: lambsquarters (Chenopodium album, CHA); assay: Post-emerge test, lambsquarters; details: 250 g ai/ha, 14 days after application, rating scale 0-100 (0 no damage, 100 complete death)
Summary of the method: as §1

[20] = tested on: field corn (Zea mays L., var. Dekalb 535, CORN); assay: Pre-emerge test, crop damage field corn; details: pre-emerge, 250 g ai/ha, 14 days after application, rating scale 0-100 (0 no damage, 100 complete death)
Summary of the method: as §3

[21] = tested on: johnsongrass (Sorghum halepense, SOH); assay: Post-emerge test, johnsongrass; details: 250 g ai/ha, 14 days after application, rating scale 0-100 (0 no damage, 100 complete death)
Summary of the method: as §1

[22] = tested on: soybean (Glycine max L., var. Pella 86, SOY); assay: Post-emerge test, crop damage soybean; details: post-emerge, 250 g ai/ha, 14 days after application, rating scale 0-100 (0 no damage, 100 complete death)
Summary of the method: as §1

[23] = tested on: cocklebur (Xanthium strumariunt, XAS); assay: Post-emerge test, cocklebur; details: 250 g ai/ha, 14 days after application, rating scale 0-100 (0 no damage, 100 complete death)
Summary of the method: as §1

[24] = tested on: barnyardgrass (Echinachloa crus-galli, ECC); assay: Pre-emerge test, barnyardgrass; details: 250 g ai/ha, 14 days after application, rating scale 0-100 (0 no damage, 100 complete death)
Summary of the method: as §2

[25] = tested on: sicklepod (Cassia obtusifolia, CAO); assay: Pre-emerge test, sicklepod; details: 250 g ai/ha, 14 days after application, rating scale 0-100 (0 no damage, 100 complete death)
Summary of the method: as §2

[26] = tested on: barnyardgrass (Echinachloa crus-galli, ECC); assay: Post-emerge test, barnyardgrass; details: 250 g ai/ha, 14 days after application, rating scale 0-100 (0 no damage, 100 complete death)
Summary of the method: as §1

[27] = tested on: wheat (Triticum aestivum); assay: Pre-emerge test, crop damage wheat; details: pre-emerge, 250 g ai/ha, 14 days after application, rating scale 0-100 (0 no damage, 100 complete death)
Summary of the method: as §3

[28] = tested on: soybean (Glycine max L., var. Pella 86, SOY); assay: Pre-emerge test, crop damage soybean; details: pre-emerge, 250 g ai/ha, 14 days after application, rating scale 0-100 (0 no damage, 100 complete death)
Summary of the method: as §3

[29] = tested on: lambsquarters (Chenopodium album, CHA); assay: Pre-emerge test, lambsquarters; details: 250 g ai/ha, 14 days after application, rating scale 0-100 (0 no damage, 100 complete death)
Summary of the method: as §2

[30] = tested on: johnsongrass (Sorghum halepense, SOH); assay: Pre-emerge test, johnsongrass; details: 250 g ai/ha, 14 days after application, rating scale 0-100 (0 no damage, 100 complete death)
Summary of the method: as §2

SMILES | Post-emerge crop damage CORN (phytotoxicity rating) [1] | Pre-emerge Herbicidal Activity DIS (phytotoxicity rating) [2] | Post-emerge Herbicidal Activity ABT (phytotoxicity rating) [3] | Pre-emerge Herbicidal Activity SEV (phytotoxicity rating) [4] | Pre-emerge Herbicidal Activity ABT (phytotoxicity rating) [5] | Pre-emerge Herbicidal Activity XAS (phytotoxicity rating) [6] | Post-emerge Herbicidal Activity SEV (phytotoxicity rating) [7] | Pre-emerge Herbicidal Activity AML (phytotoxicity rating) [8] | Post-emerge Herbicidal Activity AML (phytotoxicity rating) [9] | Pre-emerge crop damage RICE (phytotoxicity rating) [10] | Post-emerge Herbicidal Activity IPH (phytotoxicity rating) [11] | Post-emerge Herbicidal Activity CAO (phytotoxicity rating) [12] | Post-emerge crop damage RICE (phytotoxicity rating) [13] | Pre-emerge Herbicidal Activity AMR (phytotoxicity rating) [14] | Post-emerge Herbicidal Activity AMR (phytotoxicity rating) [15] | Post-emerge crop damage WHEAT (phytotoxicity rating) [16] | Post-emerge Herbicidal Activity DIS (phytotoxicity rating) [17] | Pre-emerge Herbicidal Activity IPH (phytotoxicity rating) [18] | Post-emerge Herbicidal Activity CHA (phytotoxicity rating) [19] | Pre-emerge crop damage CORN (phytotoxicity rating) [20] | also measured
CC(C)C1C(=O)Nc2c(N3C(=O)C4=C(CCCC4)C3=O)c(F)cc3c2N1C(=O)CO3 (stereo not drawn) [1-78] | 0 | 0 | 0 | 0 | 10 | 0 | 0 | 0 | 70 | 0 | 75 | 0 | 60 | 20 | 60 | 50 | 0 | 25 | 99 | 0 | Post-emerge Herbicidal Activity SOH (phytotoxicity rating) [21]: 0; Post-emerge crop damage SOY (phytotoxicity rating) [22]: 10; Post-emerge Herbicidal Activity XAS (phytotoxicity rating) [23]: 80; Pre-emerge Herbicidal Activity ECC (phytotoxicity rating) [24]: 0; Pre-emerge Herbicidal Activity CAO (phytotoxicity rating) [25]: 15; Post-emerge Herbicidal Activity ECC (phytotoxicity rating) [26]: 0; Pre-emerge crop damage WHEAT (phytotoxicity rating) [27]: 0; Pre-emerge crop damage SOY (phytotoxicity rating) [28]: 0; Pre-emerge Herbicidal Activity CHA (phytotoxicity rating) [29]: 70; Pre-emerge Herbicidal Activity SOH (phytotoxicity rating) [30]: 0
Cn1nc(-c2c(F)cc3c4c2NC(=O)C(Cl)N4C(=O)CO3)c(Cl)c1OC(F)F (stereo not drawn) [1-79] | 0 | 80 | 75 | 15 | 75 | 65 | 65 | 99 | 80 | 30 | 60 | 0 | 0 | 100 | 70 | 0 | 0 | 60 | 65 | 30 | Post-emerge Herbicidal Activity SOH (phytotoxicity rating) [21]: 0; Post-emerge crop damage SOY (phytotoxicity rating) [22]: 0; Post-emerge Herbicidal Activity XAS (phytotoxicity rating) [23]: 0; Pre-emerge Herbicidal Activity ECC (phytotoxicity rating) [24]: 35; Pre-emerge Herbicidal Activity CAO (phytotoxicity rating) [25]: 60; Post-emerge Herbicidal Activity ECC (phytotoxicity rating) [26]: 25; Pre-emerge crop damage WHEAT (phytotoxicity rating) [27]: 30; Pre-emerge crop damage SOY (phytotoxicity rating) [28]: 40; Pre-emerge Herbicidal Activity CHA (phytotoxicity rating) [29]: 100; Pre-emerge Herbicidal Activity SOH (phytotoxicity rating) [30]: 50
